Reference: US20110015226A1, “Treatment of Energy Utilization Disease” (SUMMIT CORPORATION PLC, priority 2008, published 2011)
Read-outs that look alike come from different tables or passages of the source.

Assays:
[1] = test system: N-acetyl-β-D-glucosaminidase (Jack bean); assay: Glycosidase inhibition: N-acetyl-β-D-glucosaminidase (Jack bean); format: biochemical; conditions: compounds tested at 0.8 mM
Source text: (§1) The results tabulated below were obtained using commercially available glycosidases and p-nitrophenyl-substrates using standard methods described for example by Watson et al (1997) Phytochemistry 46 255-259. All enzymes and substrates were bought from Sigma. Enzyme and substrate solutions were made using sodium phosphate buffers at the pH optima values. The enzymes used were α-D-glucosidase Saccharomyces cerevisiae, Bacillus stearothermophilus, Oryzae sativa), β-D-glucosidase (Almond), α-D-mannosidase (Jack bean), α-D-galactosidase (Green coffee beans), β-D-galactosidase (Bovine liver), α-L-fucosidase (Bovine kidney), N-acetyl-β-D-glucosaminidase (Bovine kidney, Jack bean, Aspergillus oryzae), Naringinase (Penicillium decumbens) and amyloglucosidase (Aspergillus niger). All enzymes were used with the appropriate p-nitrophenyl substrates (5 mM). Amyloglucosidase activity was measured using amylopectin (0.1%) (Merck) mixed with sodium phosphate buffer, pH 4.5 in a glass bottle, and healed in a boiling water bath for 20 minutes to dissolve with released glucose measured using ‘Trinder’ glucose detection solution (Sigma).
(§2) All enzymes and para-nitrophenyl substrates were purchased from Sigma, with the exception of beta-mannosidase which came from Megazyme. Enzymes were assayed at 27° C. in 0.1M citric acid/0.2M disodium hydrogen phosphate buffers at the optimum pH for the enzyme. The incubation mixture consisted of 10 μl enzyme solution, 10 μl of 1 mg/ml aqueous solution of extract and 50 μl of the appropriate 5 mM para-nitrophenyl substrate made up in buffer at the optimum pH for the enzyme. The reactions were stopped by addition of 70 μl 0.4M glycine (pH 10.4) during the exponential phase of the reaction, which had been determined at the beginning using uninhibited assays in which water replaced inhibitor. Final absorbances were read at 405 nm using a Versamax microplate reader (Molecular Devices). Assays were carried out in triplicate, and the values given are means of the three replicates per assay. […]

[2] = test system: N-acetyl-β-D-glucosaminidase (Bovine kidney); assay: Glycosidase inhibition: N-acetyl-β-D-glucosaminidase (Bovine kidney); format: biochemical; conditions: for % inhibition, N-acetyl-β-D-glucosaminidase (Bovine kidney): compounds tested at 0.8 mM;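 for all read-outs here: enzyme activity followed by cleavage of the matching p-nitrophenyl glycoside (5 mM) in phosphate buffer set to the enzyme's optimal pH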
Solubility in water = format: physicochemical
rat intestinal trehalase = rat intestinal trehalase (Rattus norvegicus, UniProt G3V7Q9); assay: Rat intestinal glycosidases: trehalase; format: biochemical; conditions: rat intestinal brush border membranes
Chain of rat intestinal trehalase (G3V7Q9 21-553): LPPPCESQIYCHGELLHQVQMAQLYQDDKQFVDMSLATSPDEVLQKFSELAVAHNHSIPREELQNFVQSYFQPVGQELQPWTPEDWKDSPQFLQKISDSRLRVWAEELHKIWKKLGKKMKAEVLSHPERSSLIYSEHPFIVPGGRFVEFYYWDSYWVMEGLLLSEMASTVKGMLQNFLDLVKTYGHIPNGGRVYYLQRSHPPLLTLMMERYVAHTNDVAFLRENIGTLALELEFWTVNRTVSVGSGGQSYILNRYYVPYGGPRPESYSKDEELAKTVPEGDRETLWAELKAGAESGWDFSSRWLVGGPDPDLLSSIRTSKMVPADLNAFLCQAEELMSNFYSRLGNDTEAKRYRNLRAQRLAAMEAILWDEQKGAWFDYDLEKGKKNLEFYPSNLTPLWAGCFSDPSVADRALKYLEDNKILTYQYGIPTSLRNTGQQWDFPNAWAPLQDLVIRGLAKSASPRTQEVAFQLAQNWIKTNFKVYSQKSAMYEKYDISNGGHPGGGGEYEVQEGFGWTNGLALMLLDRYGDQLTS
Experimental: (§3) Enzyme activities were prepared from brush border membranes of rat small intestine using disaccharides as substrates as described by Yasuda et al., 2002.

[3] = target: T1, rat intestinal cellobiase (Rattus norvegicus, UniProt Q02401); assay: Rat intestinal glycosidases: cellobiase; format: biochemical; conditions: rat intestinal brush border membranes
T1 construct: Enzyme activities were prepared from brush border membranes of rat small intestine; from tissue; host or cells: rat small intestine brush border membranes
T1 sequence (Q02401 868-1928): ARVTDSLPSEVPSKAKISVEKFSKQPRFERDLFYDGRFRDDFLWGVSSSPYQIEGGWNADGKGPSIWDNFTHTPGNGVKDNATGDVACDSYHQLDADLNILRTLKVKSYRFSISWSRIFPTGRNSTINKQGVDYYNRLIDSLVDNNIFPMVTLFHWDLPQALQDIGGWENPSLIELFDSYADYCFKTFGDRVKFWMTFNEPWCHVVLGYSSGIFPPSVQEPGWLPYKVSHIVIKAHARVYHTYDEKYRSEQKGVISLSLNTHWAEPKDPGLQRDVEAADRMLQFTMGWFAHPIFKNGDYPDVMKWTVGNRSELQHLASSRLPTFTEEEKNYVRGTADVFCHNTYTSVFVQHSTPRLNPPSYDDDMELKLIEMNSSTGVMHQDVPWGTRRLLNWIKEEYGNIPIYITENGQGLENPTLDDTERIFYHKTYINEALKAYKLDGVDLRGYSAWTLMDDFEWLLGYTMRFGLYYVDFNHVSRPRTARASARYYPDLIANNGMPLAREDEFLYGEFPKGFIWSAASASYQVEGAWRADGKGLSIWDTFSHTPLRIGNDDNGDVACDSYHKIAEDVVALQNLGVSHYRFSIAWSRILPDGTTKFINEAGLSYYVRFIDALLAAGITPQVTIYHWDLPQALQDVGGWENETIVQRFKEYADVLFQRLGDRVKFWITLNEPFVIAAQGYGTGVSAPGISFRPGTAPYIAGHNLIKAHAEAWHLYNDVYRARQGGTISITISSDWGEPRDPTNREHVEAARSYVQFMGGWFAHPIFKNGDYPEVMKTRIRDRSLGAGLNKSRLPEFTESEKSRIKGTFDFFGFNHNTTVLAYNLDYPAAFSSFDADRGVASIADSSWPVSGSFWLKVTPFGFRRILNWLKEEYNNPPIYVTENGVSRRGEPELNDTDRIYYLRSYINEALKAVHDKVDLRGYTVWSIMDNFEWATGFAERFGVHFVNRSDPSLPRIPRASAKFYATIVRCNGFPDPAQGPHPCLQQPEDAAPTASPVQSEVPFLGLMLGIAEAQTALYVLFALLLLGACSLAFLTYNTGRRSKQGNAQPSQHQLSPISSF
Experimental: as §3

zebrafish larvae = assay: Acute Toxicity assay in zebrafish larvae; format: in vivo; conditions: 1 mM, 5 mM, 25 mM, 50 mM, 100 mM, 200 mM, 500 mM aqueous dose, 72-96 hpf
Experimental: The compound of formula (G2) was screened for toxicity liabilities using a validated Acute Toxicity assay. Fertilized eggs were obtained from breeding pairs of adult Tuebingen (Tu) zebrafish and arrayed at the 2-4 cell stage of development into 24-well culture plates containing fresh 0.3× Danieau's solution. Plates were incubated at 28.5° C. in a humidity controlled environment prior to assessment. Stock concentrations of Compound were produced by serial dilution in 100% DMSO (final concentration exposed to larvae, 0.5%). Screening was performed at seven doses (1, 5, 25, 50, 100, 200 and 500 mM) alongside VASTox internal controls and vehicle. Dosing of Compound took place at 72 h post fertilisation (hpf; at which point embryogenesis is complete) with visual assessment of lethality and gross morphology at 96 hpf (24 h incubation). […] were exposed to each dose of Compound giving a total of […] assessed (excluding controls). At 96 hpf, larvae were observed and screened using a dissecting stereomicroscope for the presence or absence of: (1) heartbeat (2) circulation; (3) necrosis; and (4) motility (touch response). If all four criteria were satisfied, a larva would be classified as dead. The compound was screened blind.

ddy mice [4] = assay: Serum insulin levels in ddy mice with or without glucose load; format: in vivo; conditions: 30 minutes
Experimental: 7 week old ddy mice (weight 30-31 g) were divided into 4 groups (groups 1 to 4). Each group had 3-4 mice. All test mouse were fasted for 16 hours before being given the test compounds.
Group 1: Control. un-treated mice (without glucose and G2). Group 2: Oral administration of glucose alone. Group 3: Oral administration of G2 alone. Group 4: Oral administration of G2 with glucose.
Serum insulin levels were measured after 30 minutes (see FIG. 2).
FIG. 3 Effects of G2 (BR1) (100 mg/kg body weight) on serum insulin levels.
Serum insulin concentrations of male ddy mouse after 30 minutes later an oral load with or without D-glucose (2.5 g/kg body weight). Each value represents the mean±SEM (n=3-4). * P<0.05, ** P<0.01.

ddy mice [5] = assay: Blood glucose levels after maltose loading in ddy mice; format: in vivo
Experimental: 7 weeks old ddy mice (weight 30-31 g) were divided into 4 groups (from group 1 to 4). Each group had 5 mouse. All test mouse were fasted for 16 hours for this experiment.
The aim of this experiment was to show if G2 (here coded as BR1) could suppress a hyperglycemia after a meal. Thus, maltose was chosen as the loading sugar as used for Bayer's glucosidase inhibitor Glucobay. Either maltose (2.5 g/kg) or Surose (2.5 g/kg) or starch (1.0 g/kg) can be used but maltose is most popular.
Group 1: Control. Maltose-loading only (without G2 condition). Group 2: oral administration of G2 with maltose (same time). Group 3: intraperitoneal injection of G2 and oral administration of maltose (same time). Group 4: oral administration of G2 30 minutes before maltose-loading. (Glucobay is taken 30 minutes before meals).

rat intestinal maltase = assay: Rat intestinal glycosidases: maltase; format: biochemical; conditions: rat intestinal brush border membranes
Experimental: as §3

β-D-glucosidase (Almond) = assay: Glycosidase inhibition: β-D-glucosidase (Almond); format: biochemical; conditions: compounds tested at 0.8 mM
Source text: as §1, §2

[6] = target: T2, rat intestinal isomaltase (Rattus norvegicus, UniProt P23739); assay: Rat intestinal glycosidases: isomaltase; format: biochemical; conditions: rat intestinal brush border membranes
T2 construct: Enzyme activities were prepared from brush border membranes of rat small intestine; from tissue; host or cells: rat small intestine brush border membranes
T2 sequence (P23739 whole entry): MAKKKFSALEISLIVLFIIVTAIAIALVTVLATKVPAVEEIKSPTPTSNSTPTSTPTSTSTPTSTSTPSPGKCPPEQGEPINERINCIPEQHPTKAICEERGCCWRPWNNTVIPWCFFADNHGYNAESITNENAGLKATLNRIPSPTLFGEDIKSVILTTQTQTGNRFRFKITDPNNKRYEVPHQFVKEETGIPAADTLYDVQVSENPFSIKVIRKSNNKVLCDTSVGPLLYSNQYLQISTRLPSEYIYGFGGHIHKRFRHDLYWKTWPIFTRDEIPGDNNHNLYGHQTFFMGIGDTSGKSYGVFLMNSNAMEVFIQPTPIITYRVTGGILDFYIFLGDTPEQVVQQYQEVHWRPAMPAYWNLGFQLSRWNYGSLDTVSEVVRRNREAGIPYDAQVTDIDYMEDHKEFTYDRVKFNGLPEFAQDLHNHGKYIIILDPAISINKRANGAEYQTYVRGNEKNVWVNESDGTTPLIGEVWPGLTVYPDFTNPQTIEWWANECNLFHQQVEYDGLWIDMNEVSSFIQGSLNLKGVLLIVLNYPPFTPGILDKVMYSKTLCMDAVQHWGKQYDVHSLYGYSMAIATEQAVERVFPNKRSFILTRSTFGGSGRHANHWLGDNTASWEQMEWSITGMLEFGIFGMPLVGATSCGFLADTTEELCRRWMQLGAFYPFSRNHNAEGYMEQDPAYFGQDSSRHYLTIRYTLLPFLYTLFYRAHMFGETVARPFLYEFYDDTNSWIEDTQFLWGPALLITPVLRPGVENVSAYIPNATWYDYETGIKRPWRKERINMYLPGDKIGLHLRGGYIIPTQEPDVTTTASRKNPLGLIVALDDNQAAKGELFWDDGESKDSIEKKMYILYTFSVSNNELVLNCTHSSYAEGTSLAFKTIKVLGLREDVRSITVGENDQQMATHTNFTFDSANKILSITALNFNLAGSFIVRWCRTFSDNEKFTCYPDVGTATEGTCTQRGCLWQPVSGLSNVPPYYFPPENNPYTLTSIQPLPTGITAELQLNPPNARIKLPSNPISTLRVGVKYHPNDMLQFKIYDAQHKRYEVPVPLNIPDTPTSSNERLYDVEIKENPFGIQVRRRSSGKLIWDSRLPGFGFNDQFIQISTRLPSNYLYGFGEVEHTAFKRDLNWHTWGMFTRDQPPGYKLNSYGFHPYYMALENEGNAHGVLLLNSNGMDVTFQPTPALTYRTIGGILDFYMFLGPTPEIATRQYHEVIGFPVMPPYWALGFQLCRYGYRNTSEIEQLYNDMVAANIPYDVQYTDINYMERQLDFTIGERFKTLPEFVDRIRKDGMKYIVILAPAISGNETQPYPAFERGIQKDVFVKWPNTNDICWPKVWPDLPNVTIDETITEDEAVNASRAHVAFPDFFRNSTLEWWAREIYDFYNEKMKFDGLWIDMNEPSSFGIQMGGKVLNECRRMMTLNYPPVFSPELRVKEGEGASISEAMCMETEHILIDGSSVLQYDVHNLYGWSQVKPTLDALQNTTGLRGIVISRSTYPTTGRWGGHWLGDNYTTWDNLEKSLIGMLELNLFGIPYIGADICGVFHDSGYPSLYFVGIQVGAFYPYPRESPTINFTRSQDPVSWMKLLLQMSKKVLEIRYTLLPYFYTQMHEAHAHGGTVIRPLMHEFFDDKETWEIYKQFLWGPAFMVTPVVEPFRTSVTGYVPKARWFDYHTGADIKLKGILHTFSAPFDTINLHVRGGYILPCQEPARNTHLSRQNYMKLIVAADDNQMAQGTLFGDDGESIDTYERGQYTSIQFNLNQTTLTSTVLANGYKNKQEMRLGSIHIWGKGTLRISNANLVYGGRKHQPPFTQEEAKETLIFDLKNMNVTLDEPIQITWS
Experimental: as §3

rat intestinal lactase = target: T3, rat intestinal lactase (Rattus norvegicus, UniProt Q02401); assay: Rat intestinal glycosidases: lactase; format: biochemical; conditions: rat intestinal brush border membranes
T3 construct: Enzyme activities were prepared from brush border membranes of rat small intestine; from tissue; host or cells: rat small intestine brush border membranes
T3 sequence (Q02401 868-1928): as the sequence (Q02401 868-1928) above
Experimental: as §3

OC[C@H]1NC[C@H](O)[C@@H](O)[C@@H]1O [DNJ, 1-deoxynojirimycin, reference compound]
% inhibition, N-acetyl-β-D-glucosaminidase (Jack bean) [1]: NI (NI = no inhibition)

O=C(O)CCN1C[C@H](O)[C@@H](O)[C@H](O)[C@H]1CO [Compound T1]
% inhibition, N-acetyl-β-D-glucosaminidase (Bovine kidney) [2]: 86.1% | IC50 ([2]; read-out: IC50, N-acetyl-β-D-glucosaminidase (Bovine kidney)): 0.0322 mM | IC50 ([2]; read-out: IC50 against mammalian 6-N-acetylglucosaminidase (hexosaminidase)): 0.032 mM

O=C(O)[C@H]1NC[C@H](O)[C@@H](O)[C@@H]1O [Compound G2, 2S,3R,4R,5S-trihydroxypiperidine-2-carboxylic acid]
% inhibition, N-acetyl-β-D-glucosaminidase (Bovine kidney) [2]: NI (NI = no inhibition) | solubility in water (Solubility in water): freely soluble | IC50 (rat intestinal trehalase): > 1 mM | % inhibition, N-acetyl-β-D-glucosaminidase (Jack bean) [1]: 10% | IC50 [3]: > 1 mM | acute toxicity to zebrafish larvae (zebrafish larvae): did not cause acute toxicity | serum insulin level, G2 with glucose (ddy mice [4]; 100 mg/kg body weight oral with D-glucose 2.5 g/kg, vs glucose alone): much effective than glucose alone | serum insulin level, G2 alone (ddy mice [4]; 100 mg/kg body weight oral, without glucose, vs un-treated): did not affect the insulin level | absorption into the blood (ddy mice [5]; inferred from p.o. and i.p. curves being almost same): absorbed into the blood very quickly | blood glucose level (hyperglycemia) after maltose loading (ddy mice [5]; p.o. with maltose, i.p. with maltose, or p.o. 30 minutes before maltose (2.5 g/kg)): suppress hyperglycemia | IC50 (rat intestinal maltase): > 1 mM | % inhibition, β-D-glucosidase (Almond) (β-D-glucosidase (Almond)): NI (NI = no inhibition) | IC50 [6]: > 1 mM | IC50 (rat intestinal lactase): > 1 mM

O=C(O)CN1[C@H](CO)[C@@H](O)[C@H](O)[C@H]1CO [Compound S2, 2-((2R,3R,4R,5R)-3,4-Dihydroxy-2,5-bis(hydroxymethyl)pyrrolidin-1-yl)acetic acid]
% inhibition, β-D-glucosidase (Almond) (β-D-glucosidase (Almond)): 55%
